In patent publication US20080009019A1, “HIGH THROUGHPUT METHOD FOR SCREENING CANDIDATE COMPOUNDS FOR BIOLOGICAL ACTIVITY” (SmithKline Beecham Corporation, priority 2001, published 2008):

What was measured:
Format in all cases: cell-based
[1] = molecular target: T1, MC1R (Homo sapiens, UniProt Q01726); experiment: Bead-based lawn assay, peptides photocleaved from beads in lawn of CHO-6CRE-luc+-MC1R cells; set-up: expressed in transfected cells; settings: for response value at plateau compared with maximal response to [NDP]-α-MSH: 3-minute UV time point, FIG. 11B versus FIG. 11A; for UV exposure time point at which response began to plateau: 5 beads per peptide pushed into lawn, UV 365 nm for 0, 0.5, 1, 3, 10 minutes, FIG. 11B
Description: Agonists for GPCRs were assayed using beads to which peptides or compounds are attached by a photolinker. The beads were either mixed in the agarose or were applied to the surface of the lawn. The attached compound or peptide was cleaved by exposure to UV light.
Cell culture and assay methods were as described in Example 1. Hexamer peptides were linked to 200 micrometer […]™ microsphere beads (polystyrene core with […]™ pegs—available from Rapp Polymere GmbH of Tubingen, Germany) by a photocleavable linker. Two peptides were tested for validation purposes: Peptide 1-Ac-NH-Ser-Val-dHis-dPhe-Arg-Trp (SEQ ID NO:1) and Peptide 2-Ac-NH-Val-Ala-dHis-dPhe-Arg-Tyr (SEQ ID NO:2). Beads were added to the agarose lawn either by pushing the bead into the agarose with forceps or by suspending the beads in the melted agarose/cell mixture. Peptides were cleaved from the beads by exposure to ultraviolet light using a UV lamp set at 365 nm wavelength (λ).
A time course of delivery of MC1R agonist peptides 1 and 2, which were linked to beads (described in methods), to a lawn of CHO-6CRE-luc^+-MC1R cells is shown in FIGS. 10A-10E. The peptides were cleaved from the beads by increasing the time of UV exposure. FIGS. 10A-10E depict UV exposure for 0, 0.5, 1, 3, and 10 minutes, respectively. A concentration-response curve for of [NDP]-α-MSH was run in row 1 on each lawn at the same concentrations as in FIG. 9. Five (5) beads each of peptide 1 and 2 were pushed into the agarose layer with forceps. Peptide 1 and 2 were on the left and right of each lawn, respectively.
FIG. 11A is a line graph representation of the average luminescence of the 5 beads at each time point. The response was calculated by subtracting the background z value for the lawn from the z value for each area to which the bead was applied. The magnitude of response is dictated by both the response of the reporter cell line and the amount of peptide that can be released from the beads. Both peptide 1 and 2 are full agonists for MC1R when tested in a well-based reporter assay so both peptides are capable of eliciting a response similar to [NDP]-α-MSH.

[2] = molecular target: T1, MC1R; experiment: Well-based reporter assay
[3] = molecular target: T2, corticotrophin releasing factor receptor (CRHR1) (Homo sapiens, UniProt P34998); experiment: Agarose lawn reporter assay, CHO-6xCRE-luc+ cells expressing CRH1 receptor; settings: approximately 10 nl of 5×10^−4 M to 1.5×10^−6 M peptide solution on lawn by HDR pin tool; 4 hours at 37° C.; FIGS. 7A-7B
T2 construct: expressed in transfected cells
T2 sequence (P34998 24-415): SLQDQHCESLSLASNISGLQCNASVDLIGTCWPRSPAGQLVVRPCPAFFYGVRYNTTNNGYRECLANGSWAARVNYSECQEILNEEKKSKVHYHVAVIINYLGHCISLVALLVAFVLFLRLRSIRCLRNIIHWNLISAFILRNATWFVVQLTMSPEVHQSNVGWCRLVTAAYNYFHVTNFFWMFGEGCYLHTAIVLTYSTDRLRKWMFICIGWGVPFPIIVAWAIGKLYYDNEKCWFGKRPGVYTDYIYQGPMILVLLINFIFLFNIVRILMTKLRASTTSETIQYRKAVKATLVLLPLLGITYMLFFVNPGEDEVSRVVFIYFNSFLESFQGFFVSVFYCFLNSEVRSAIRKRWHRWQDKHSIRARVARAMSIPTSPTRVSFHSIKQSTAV
Description: Chinese hamster ovary (CHO) cells were transfected with a 6xCRE-luciferase^+reporter gene. A stable host cell line was selected, into which cloned human receptors were transfected. Stable cell lines expressing these receptors were selected for screening purposes.
A reporter gene host cell line stably expressing a reporter construct comprising 6 cyclic AMP response elements (CREs) driving the expression of luciferase (6xCRE-luciferase^+) was generated as described by Goetz et al., (2000) J. Biomolec. Screening 5:377-384. […]
1.5 grams of LMP agarose were dissolved in 100 ml of assay medium (DMEM/F12 medium containing 2% glutamine) in a microwave oven. […] The cells were collected from suspension culture and were re-suspended in 60 ml of assay medium for determination of quantity of cells. […]
Solutions of peptides were then delivered to the lawn using a HDR 96-pin tool that delivers approximately 10 nanoliters (nl) of solution. […] Luminescence was detected using a VIEWLUX® camera.
Images were acquired by focusing luminescent light from the OMNI PLATE® tray, for 90 seconds, onto a CCD camera chip via a telecentric lens. […] The gray intensity was determined by scanning each grid unit to determine where the highest point in the region was located. […] The x and y co-ordinates were recorded to facilitate the production of graphical representations of the data.

T1 sequence (Q01726 whole entry): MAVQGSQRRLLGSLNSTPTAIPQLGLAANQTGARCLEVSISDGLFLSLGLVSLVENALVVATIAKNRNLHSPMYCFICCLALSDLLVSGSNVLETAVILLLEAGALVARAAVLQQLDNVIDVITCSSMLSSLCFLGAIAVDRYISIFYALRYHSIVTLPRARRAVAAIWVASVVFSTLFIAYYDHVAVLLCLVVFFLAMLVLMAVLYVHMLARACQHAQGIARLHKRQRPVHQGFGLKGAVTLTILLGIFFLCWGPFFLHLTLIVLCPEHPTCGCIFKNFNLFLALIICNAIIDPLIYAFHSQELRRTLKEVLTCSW

Substance	response value at plateau compared with maximal response to [NDP]-α-MSH [1]	UV exposure time point at which response began to plateau [1]	agonist character for MC1R [2]	concentration-response curve of luminescence activity [3]
Ac-NH-Ser-Val-dHis-dPhe-Arg-Trp [peptide 1]	well below the maximal response to [NDP]-α-MSH	3 min	full agonists	–
Ac-NH-Val-Ala-dHis-dPhe-Arg-Tyr [peptide 2]	well below the maximal response to [NDP]-α-MSH	3 min	full agonists	–
corticotrophin releasing factor [CRH]	–	–	–	concentration-response curve of luminescence activity was only observed when peptide was applied to the cell line expressing the appropriate receptor
